The values that follow come from US8309558B2, “Compounds for the treatment of hepatitis C” (Bristol-Myers Squibb Company, priority 2008, dated 2012).

In series [1] the target is T1, HCV NS5B RdRp genotype 1b (Hepatitis C virus genotype 1b, UniProt Q9WMX2).
T1 construct: The protein was expressed with an 18 amino acid C-terminal truncation to enhance the solubility; made in house; host or cells: E. coli BL21(DE3), pET21a vector
Kind of series: Standard HCV NS5B RdRp enzyme assay. Format: biochemical. The following applies: untitled table after Table 1b; HCV NS5B RdRp genotype 1b; read-out: IC50. A digest of the protocol:
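Radiometric SPA measuring 3H-UMP incorporation on polyA/biotin-oligo-dT12 (6 nM/180 nM), 0.29 μM total UTP. Enzyme: NS5B 1b lacking last 18 residues, 28 nM final, 30° C for 60 min in 20 mM Hepes pH 7.5, 2.5 mM MgCl2, 2% DMSO. IC50 from seven-point curves.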

Series [2] relates to HUH-7 cells, constitutively expressing the HCV replicon. Kind of series: HCV Replicon Luciferase Reporter Assay (384-well plates). In kind it is cell-based. The note with it: Hepatitis C virus, untitled table after Table 1b, *EC50 determined using 384 well plate method. As to the method:
The HCV replicon luciferase assay was developed to monitor the inhibitory effects of compounds described in the disclosure on HCV viral replication. Utilization of a replicon luciferase reporter assay was first described by Krieger et al (Krieger N, Lohmann V, and Bartenschlager R, J. Virol. 75(10):4614-4624 (2001)). HUH-7 cells, constitutively expressing the HCV replicon, were grown in Dulbecco's Modified Eagle Media (DMEM) (Gibco-BRL) containing 10% Fetal calf serum (FCS) (Sigma) and 1 mg/ml G418 (Gibco-BRL). Compounds were serially diluted 3 folds in DMSO for a twenty-point titration and subsequently transferred to sterile 384-well tissue-culture treated plates (Corning cat #3571). The plates were then seeded with 50 μl of cells at a density of 3.0×10^3 cells/well in DMEM containing 4% FCS (final DMSO concentration at 0.5%). After 3 days incubation at 37° C., cells were analyzed for Renilla Luciferase activity using the EnduRen as substrate (Promega cat #E6485). The EnduRen substrate was diluted in DMEM and then added to the plates to a final concentration of 7.5 μM. The plates were incubated for 2 hrs at 37° C. and then read immediately for 30 seconds with Viewlux Imager (PerkinElmer) using a luminescence program. To assess cytotoxicity of compounds, CC50 values were generated by multiplexing the EnduRen-containing plates with Cell Titer-Blue (Promega, cat #G8082). 3 μl of Cell-Titer Blue was added to each well and incubated for 8 hrs at 37° C. The fluorescence signal from each well was read, with an excitation wavelength at 525/10 nm and an emission wavelength of 598/10 nm, using the Viewlux Imager.

Another series deals with HCV. The note with it: cited from earlier work.

pEC50, pIC50: −log10 of the molar value.

T1 sequence (Q9WMX2 2420-2992): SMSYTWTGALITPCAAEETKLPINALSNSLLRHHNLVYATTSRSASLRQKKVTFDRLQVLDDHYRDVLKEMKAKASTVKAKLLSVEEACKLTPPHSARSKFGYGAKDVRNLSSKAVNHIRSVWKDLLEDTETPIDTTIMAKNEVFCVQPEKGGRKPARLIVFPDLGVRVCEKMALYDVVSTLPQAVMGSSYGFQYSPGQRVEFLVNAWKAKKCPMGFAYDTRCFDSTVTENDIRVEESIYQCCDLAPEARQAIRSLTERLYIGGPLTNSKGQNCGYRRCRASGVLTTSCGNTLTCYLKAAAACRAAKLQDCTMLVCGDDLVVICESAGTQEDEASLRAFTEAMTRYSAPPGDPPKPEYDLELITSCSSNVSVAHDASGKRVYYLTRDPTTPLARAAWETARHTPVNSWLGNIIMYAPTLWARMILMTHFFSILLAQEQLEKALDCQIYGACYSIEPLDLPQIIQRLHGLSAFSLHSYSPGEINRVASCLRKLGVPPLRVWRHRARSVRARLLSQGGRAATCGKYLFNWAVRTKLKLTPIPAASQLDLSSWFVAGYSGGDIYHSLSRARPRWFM

For the compound `CNC(=O)c1c(-c2ccc(F)cc2)oc2ccc(-c3cc(C(=O)NC4(c5ncccn5)CC4)ccc3C)cc12` [drawing 599], in series [1], the pIC50 – broadly, the IC50 on a negative log10 scale, so that one unit is a factor of ten – is above 7.70. The pEC50 – broadly, −log10 of the EC50, conventionally taken in molar units – in series [2] is 9.52.

Consider `CNC(=O)c1c(-c2ccc(F)cc2)oc2ccc(-c3cc(C(=O)NC4(c5ccccn5)CC4)cc(F)c3C)cc12` [drawing 600], for which the pIC50 in series [1] was 8.00. The compound further gave a pEC50 in series [2] of 9.37. As to `CNC(=O)c1c(-c2ccc(F)cc2)oc2ccc(-c3cc(C(=O)NC4(c5nc(C)no5)CC4)c(OC)cc3C)cc12` [drawing 598], in series [1], the pIC50 is 7.70. Further, the pEC50 in series [2] is 8.80. The corresponding values for `CNC(=O)c1c(-c2ccc(F)cc2)oc2ccc(-c3cc(C(=O)NC4(c5ccncc5)CC4)ccc3C)cc12` [drawing 603] are 8.40 and 9.08. As to `CNC(=O)c1c(-c2ccc(F)cc2)oc2ccc(-c3cc(C(=O)NC4(c5ccccc5)CC4)ccc3C)cc12` [drawing 601], in series [1], the pIC50 was 7.70. In series [2], this compound had a pEC50 of 9.10. In the case of `CNC(=O)c1c(-c2ccc(F)cc2)oc2ccc(-c3cc(C(=O)NC4(c5ncccn5)CC4)ccc3C)c(F)c12` [drawing 623], in series [2], the pEC50 is 8.25. For `CNC(=O)c1c(-c2ccc(F)cc2)oc2cc(N(CCO)S(C)(=O)=O)c(C3CC3)cc12` [HCV-796], in the series with HCV (patients, extended dosing of the combination regimens), the hepatic toxicity result is reported as “hepatic toxicity observed”. The “HCV RNA levels in patients” value in the series on HCV (single agent or combined with interferon and ribavirin) is “reduce HCV RNA levels in patients”. For `CNC(=O)c1c(-c2ccc(F)cc2)oc2ccc(-c3cc(C(=O)NC4(c5nc(C)no5)CC4)ccc3C)cc12` [drawing 602], the pIC50 in series [1] was 8.14. This compound also showed a pEC50 in series [2] of 9.09.
